{"source": "patent US12544382B2", "about": "“2, 4, 6-tri-substituted pyrimidine compound as ATR kinase inhibitor” (BEIJING TIDE PHARMACEUTICAL CO., LTD., priority 2019, dated 2026)", "key": {"ATR kinase": {"target": "ATR kinase (Homo sapiens (Human), UniProt Q13535)", "sequence (Q13535 whole entry)": "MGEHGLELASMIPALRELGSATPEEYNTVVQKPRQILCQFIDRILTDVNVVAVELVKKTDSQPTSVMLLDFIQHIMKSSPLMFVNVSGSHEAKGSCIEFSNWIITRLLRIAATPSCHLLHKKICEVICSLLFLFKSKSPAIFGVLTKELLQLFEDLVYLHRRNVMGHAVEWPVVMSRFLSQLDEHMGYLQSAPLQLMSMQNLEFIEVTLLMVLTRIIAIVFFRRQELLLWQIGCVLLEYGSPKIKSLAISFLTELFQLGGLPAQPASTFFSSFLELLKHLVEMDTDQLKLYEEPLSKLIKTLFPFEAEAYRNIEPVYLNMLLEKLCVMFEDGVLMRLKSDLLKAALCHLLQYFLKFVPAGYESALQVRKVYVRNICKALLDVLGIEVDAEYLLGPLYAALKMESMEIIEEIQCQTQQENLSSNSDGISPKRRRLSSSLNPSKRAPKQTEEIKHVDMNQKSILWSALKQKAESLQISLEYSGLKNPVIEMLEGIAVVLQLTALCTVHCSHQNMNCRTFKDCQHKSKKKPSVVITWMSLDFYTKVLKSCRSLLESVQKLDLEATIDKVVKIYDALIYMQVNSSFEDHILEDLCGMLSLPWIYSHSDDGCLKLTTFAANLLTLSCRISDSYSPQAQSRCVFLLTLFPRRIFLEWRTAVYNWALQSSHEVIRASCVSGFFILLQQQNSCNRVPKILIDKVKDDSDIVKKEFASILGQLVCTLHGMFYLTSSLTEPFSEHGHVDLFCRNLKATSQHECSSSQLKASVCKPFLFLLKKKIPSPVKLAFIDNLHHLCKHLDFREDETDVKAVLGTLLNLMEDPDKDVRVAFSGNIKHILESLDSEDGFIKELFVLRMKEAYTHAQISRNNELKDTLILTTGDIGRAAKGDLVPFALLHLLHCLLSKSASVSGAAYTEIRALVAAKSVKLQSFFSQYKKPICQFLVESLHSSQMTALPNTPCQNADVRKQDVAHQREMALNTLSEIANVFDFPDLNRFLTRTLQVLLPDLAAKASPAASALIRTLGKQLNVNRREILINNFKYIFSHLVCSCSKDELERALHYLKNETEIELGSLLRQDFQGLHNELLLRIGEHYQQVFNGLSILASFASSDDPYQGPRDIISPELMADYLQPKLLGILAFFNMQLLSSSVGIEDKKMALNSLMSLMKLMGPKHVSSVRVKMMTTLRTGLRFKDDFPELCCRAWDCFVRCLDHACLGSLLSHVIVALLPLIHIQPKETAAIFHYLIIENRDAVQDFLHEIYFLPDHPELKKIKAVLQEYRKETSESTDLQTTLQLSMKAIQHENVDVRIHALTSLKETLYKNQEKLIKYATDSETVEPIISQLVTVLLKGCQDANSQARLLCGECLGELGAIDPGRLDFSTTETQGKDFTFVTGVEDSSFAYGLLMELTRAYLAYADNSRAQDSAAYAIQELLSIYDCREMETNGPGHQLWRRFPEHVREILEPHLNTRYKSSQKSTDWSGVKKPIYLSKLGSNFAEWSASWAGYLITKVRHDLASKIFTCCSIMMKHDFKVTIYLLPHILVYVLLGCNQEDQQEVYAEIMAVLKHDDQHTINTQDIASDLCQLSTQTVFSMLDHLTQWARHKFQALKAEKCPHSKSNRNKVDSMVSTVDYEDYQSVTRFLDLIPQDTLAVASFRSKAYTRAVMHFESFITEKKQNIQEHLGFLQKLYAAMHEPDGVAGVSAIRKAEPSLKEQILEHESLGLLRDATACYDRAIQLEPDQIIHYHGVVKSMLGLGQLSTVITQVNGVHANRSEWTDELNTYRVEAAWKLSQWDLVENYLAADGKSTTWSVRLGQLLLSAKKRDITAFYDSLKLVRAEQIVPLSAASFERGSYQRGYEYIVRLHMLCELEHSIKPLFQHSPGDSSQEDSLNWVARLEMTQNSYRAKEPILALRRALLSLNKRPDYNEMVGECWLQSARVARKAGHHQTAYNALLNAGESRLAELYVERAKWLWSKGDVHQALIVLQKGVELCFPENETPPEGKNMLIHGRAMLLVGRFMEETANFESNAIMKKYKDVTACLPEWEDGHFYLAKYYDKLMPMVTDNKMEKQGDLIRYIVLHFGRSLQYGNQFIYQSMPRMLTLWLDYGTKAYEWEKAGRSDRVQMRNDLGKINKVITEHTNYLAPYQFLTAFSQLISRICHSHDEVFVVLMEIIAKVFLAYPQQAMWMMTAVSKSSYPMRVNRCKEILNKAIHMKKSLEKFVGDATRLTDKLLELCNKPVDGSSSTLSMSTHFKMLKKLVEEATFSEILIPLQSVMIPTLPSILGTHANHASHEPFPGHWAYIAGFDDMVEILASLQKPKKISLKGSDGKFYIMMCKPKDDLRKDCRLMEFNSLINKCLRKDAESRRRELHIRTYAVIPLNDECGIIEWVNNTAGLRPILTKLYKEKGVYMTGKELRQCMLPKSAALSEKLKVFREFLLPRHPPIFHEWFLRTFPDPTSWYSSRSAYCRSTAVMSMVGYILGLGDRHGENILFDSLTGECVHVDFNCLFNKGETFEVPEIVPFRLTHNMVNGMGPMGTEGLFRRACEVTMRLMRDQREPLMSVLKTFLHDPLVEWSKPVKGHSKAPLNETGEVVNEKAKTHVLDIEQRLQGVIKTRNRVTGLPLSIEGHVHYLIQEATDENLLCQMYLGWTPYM", "sequence (Q8WXE1 whole entry partner)": "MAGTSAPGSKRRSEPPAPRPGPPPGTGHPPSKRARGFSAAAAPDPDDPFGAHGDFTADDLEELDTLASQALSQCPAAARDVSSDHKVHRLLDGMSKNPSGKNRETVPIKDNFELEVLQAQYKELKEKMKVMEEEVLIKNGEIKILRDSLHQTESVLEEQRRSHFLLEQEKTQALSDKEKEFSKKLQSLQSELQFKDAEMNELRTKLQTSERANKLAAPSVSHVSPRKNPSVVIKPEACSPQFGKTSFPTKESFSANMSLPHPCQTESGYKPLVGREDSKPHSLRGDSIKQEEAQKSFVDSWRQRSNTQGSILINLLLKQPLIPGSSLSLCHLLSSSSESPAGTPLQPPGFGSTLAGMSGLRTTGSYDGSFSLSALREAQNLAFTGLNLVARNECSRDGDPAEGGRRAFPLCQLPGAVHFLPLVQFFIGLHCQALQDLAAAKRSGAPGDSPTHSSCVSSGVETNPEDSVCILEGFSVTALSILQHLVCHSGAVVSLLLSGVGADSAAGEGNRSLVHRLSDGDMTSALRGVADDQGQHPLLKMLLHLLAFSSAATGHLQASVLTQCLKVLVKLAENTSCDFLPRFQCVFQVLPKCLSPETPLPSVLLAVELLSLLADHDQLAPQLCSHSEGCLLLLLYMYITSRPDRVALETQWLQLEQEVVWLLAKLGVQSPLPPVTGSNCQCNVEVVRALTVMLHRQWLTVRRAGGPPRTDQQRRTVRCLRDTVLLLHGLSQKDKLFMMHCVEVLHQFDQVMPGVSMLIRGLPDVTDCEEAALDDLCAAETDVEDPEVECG", "test": "ATR kinase activity assay (time-resolved fluorescence, p53 substrate phosphorylation)", "assay_type": "biochemical", "description": "Biotinylated protein derived from p53 (Eurofins, art. No.: 14-952) was phosphorylated with ATR kinase. The amount of phosphorylated protein was determined by time-resolved fluorescence in this assay. The amount of phosphorylated protein was detected by anti-p53-phospho-(serine 15)-K-specific antibody (Cisbio, art. No.: 61GSTDLA) and d2 labeled anti-GST antibody (Cisbio, art. No. 61P08KAE). Before the experiment, the following working solution was prepared as required: 1× reaction buffer (20 mM HEPES PH8.0, 1% glycerol, 0.01% Brij-35), dilution buffer (20 mM HEPES PH8.0, 1% glycerol, 0.01% Brij-35, 5 mM DTT and 1% BSA), stop solution (20 mM HEPES PH8.0, 1% glycerol, 0.01% Brij-35, 250 mM EDTA), detection buffer (50 mM HEPES pH7.0, 150 mM NaCl, 267 mM KF, 0.1% sodium cholate, 0.01% Tween-20, 0.0125% sodium azide). The reagents used above are purchased from Sigma or Invitrogen, except for those where the manufacturer was mentioned.\nOperations are as follows:\n4× gradient dilution of compound solutions was prepared with 1× reaction buffer to obtain 9 compound solutions of different concentrations, and 2.5 μL 4× gradient dilution of compound solutions was added to a 384-well analysis plate (784075, Greiner). 4× p53 substrate working solution (40 nM) was prepared with 1× reaction buffer, and 2.5 μL 4× p53 substrate working solution was added to the 384-well analysis plate. 4×ATR/ATRIP working solution (12.8 ng/μL) was prepared with dilution buffer, and 2.5 μL 4×pATR/ATRIP working solution was added to the 384-well analysis plate. 4×ATP working solution (2 mM) was prepared with deionized water, 2.5 μL 4×ATP working solution was added to the 384-well analysis plate, and incubated at room temperature in dark for 30 minutes. 5 μL stop solution was added to the 384 analysis plate. Finally, 5 μL test mixture (0.084 ng/μL Anti-phospho-p53(ser15)-K and 5 ng/μL Anti-GST-d2) was added to the 384 well analysis plate, incubated overnight at room temperature, and the fluorescence signal was detected with ENVISION (Perkinelmer) instrument (excitation wavelength: 320 nm, emission wavelength: 665 nm and 615 nm). The inhibition rate in each well was calculated by the fluorescence intensity value of each hole: ER (Emission Ratio)=(Fluorescence intensity at 665 nm/Fluorescence intensity at 615 nm); inhibition rate=(ER positive-ER test compound)/(ER positive-ER negative)×100%, the IC50 value of compounds were calculated by standard parameter fitting software (GraphPad Prism 6.0)."}, "[1]": {"system": "TOV21G (ovarian cancer) cells", "test": "In vitro cell proliferation inhibition assay (CellTiter-Glo), TOV21G", "assay_type": "cell-based, human", "settings": "120 hours", "description": "(§1) By detecting the effect of compound on cell activity in vitro in the tumor cell lines TOV21G (ovarian cancer) and MV4-11 (leukemia), the effect of compound inhibiting cell proliferation was studied in this assay.\n(§2) TOV21G cells and MV4-11 cells were purchased from American Type Culture Collection (ATCC).\nTOV21G cells were cultured in MCDB105/M199 medium (containing 15% […]), and used for testing when the cell confluence reaches 85% or more. Each well of a 96-well culture plate was inoculated with about 1000 cells, cultured for 24 hours, and treated with different concentrations (0-10 μM) of compound solution to be tested in triplex. Blank wells (contains medium only) and control wells (seeded cells was not treated with drug) were set. Cells were cultured for 120 hours, 40 μL Cell Titer-Glo solution (Promega, #G7573) were added to each well, incubated with shaking for 20 min in the dark, 100 μL solution was transferred from each well to a 96-well white plate (Corning, #3917), and the luminescence value was read by Biotek Synergy H1 multifunctional microplate reader."}, "MV4-11 (leukemia) cells": {"system": "MV4-11 (leukemia) cells", "test": "In vitro cell proliferation inhibition assay (CellTiter-Glo), MV4-11", "assay_type": "cell-based, human", "settings": "MV4-11 cells", "description": "as §1, §2\nMV-4-11 cells were cultured in IMDM medium (containing 20% FBS), each well of a 96-well culture plate was inoculated with about 10000 cells, and treated with different concentrations (0-10 μM) of compounds to be tested in triplex. Blank wells (containing medium only) and control wells (inoculated with cells but not treated with drug) were set. Cells were cultured for 120 hours, 40 μL Cell Titer-Glo solution was added to each well, incubated with shaking for 20 min in the dark, 100 μL solution was transferred from each well to a 96-well white plate, and the luminescence value was read by Biotek Synergy H1 multifunctional microplate reader. Inhibition rate (%)=100%×(control well−test well)/(control well−blank well)"}}}
{"smiles": "CCNc1nc2cc(F)ccc2n1-c1nc(-c2c(C)nn(C3CCNCC3)c2C(F)(F)F)cc(N2CCOC[C@H]2C)n1", "note": "[Compound D23]", "values": [{"measurement": "IC50", "setting": "ATR kinase", "result": 8, "unit": "nM"}, {"measurement": "IC50", "setting": "[1]", "result": 580, "unit": "nM"}, {"measurement": "IC50", "setting": "MV4-11 (leukemia) cells; 120 hours", "result": 690, "unit": "nM"}]}
{"smiles": "CNc1nc2cc(Cl)ccc2n1-c1nc(-c2c(C)nn(C3CCNCC3)c2C(F)(F)F)cc(N2CCOC[C@H]2C)n1", "note": "[Compound D25]", "values": [{"measurement": "IC50", "setting": "[1]; Homo sapiens", "result": 1030, "unit": "nM"}, {"measurement": "IC50", "setting": "MV4-11 (leukemia) cells; Homo sapiens, MV4-11, 120 h", "result": 990, "unit": "nM"}]}
{"smiles": "CNc1nc2ncccc2n1-c1nc(-c2c(C)nn(C3CCNCC3)c2C(F)(F)F)cc(N2CCOC[C@H]2C)n1", "note": "[Compound D26]", "values": [{"measurement": "IC50", "setting": "ATR kinase", "result": 12, "unit": "nM"}, {"measurement": "IC50", "setting": "[1]", "result": 3580, "unit": "nM"}, {"measurement": "IC50", "setting": "MV4-11 (leukemia) cells; 120 hours", "result": 3090, "unit": "nM"}]}
{"smiles": "CNc1nc2cc(F)ccc2n1-c1nc(-c2c(C)nn(C3CCNCC3)c2C(F)(F)F)c(F)c(N2CCOC[C@H]2C)n1", "note": "[Compound D27]", "values": [{"measurement": "IC50", "setting": "ATR kinase", "result": 8, "unit": "nM"}, {"measurement": "IC50", "setting": "[1]", "result": 720, "unit": "nM"}, {"measurement": "IC50", "setting": "MV4-11 (leukemia) cells; 120 hours", "result": 970, "unit": "nM"}]}
{"smiles": "Cc1nn(C2CCNCC2)c(C(F)(F)F)c1-c1cc(N2CCOC[C@H]2C)nc(-n2cnc3cc(F)ccc32)n1", "note": "[Compound D30a]", "values": [{"measurement": "IC50", "setting": "ATR kinase", "result": 16, "unit": "nM"}, {"measurement": "IC50", "setting": "[1]", "result": 2090, "unit": "nM"}, {"measurement": "IC50", "setting": "MV4-11 (leukemia) cells; 120 hours", "result": 410, "unit": "nM"}]}
{"smiles": "Cc1nn(C2CCNCC2)c(C(F)(F)F)c1-c1cc(N2CCOC[C@H]2C)nc(-n2cnc3ccc(F)cc32)n1", "note": "[Compound D30b]", "values": [{"measurement": "IC50", "setting": "ATR kinase", "result": 54, "unit": "nM"}, {"measurement": "IC50", "setting": "[1]", "result": 2220, "unit": "nM"}, {"measurement": "IC50", "setting": "MV4-11 (leukemia) cells; 120 hours", "result": 330, "unit": "nM"}]}
{"smiles": "CNc1nc2cc(F)ccc2n1-c1nc(-c2c(C(F)(F)F)nn(C3CCCNC3)c2C)cc(N2CCOC[C@H]2C)n1", "note": "(some centres unmarked) [Compound D33]", "values": [{"measurement": "IC50", "setting": "ATR kinase", "result": 13, "unit": "nM"}, {"measurement": "IC50", "setting": "[1]", "result": 1450, "unit": "nM"}, {"measurement": "IC50", "setting": "MV4-11 (leukemia) cells; 120 hours", "result": 1310, "unit": "nM"}]}
{"smiles": "Cc1nn(C2CCNCC2)c(C(F)(F)F)c1-c1cc(N2CCOC[C@H]2C)nc(-n2c(NC(=O)C3CC3)nc3ccccc32)n1", "note": "[Compound D38]", "values": [{"measurement": "IC50", "setting": "ATR kinase", "result": 5, "unit": "nM"}, {"measurement": "IC50", "setting": "[1]", "result": 140, "unit": "nM"}, {"measurement": "IC50", "setting": "MV4-11 (leukemia) cells; 120 hours", "result": 230, "unit": "nM"}]}
{"smiles": "CNc1nc2cc(F)ccc2n1-c1nc(-c2c(C)nn(CC3CCCNC3)c2C(F)(F)F)cc(N2CCOC[C@H]2C)n1", "note": "(some centres unmarked) [Compound D39]", "values": [{"measurement": "IC50", "setting": "ATR kinase", "result": 3, "unit": "nM"}, {"measurement": "IC50", "setting": "[1]; Homo sapiens", "result": 860, "unit": "nM"}, {"measurement": "IC50", "setting": "MV4-11 (leukemia) cells; Homo sapiens, MV4-11, 120 h", "result": 1230, "unit": "nM"}]}
{"smiles": "CNc1nc2ccccc2n1-c1nc(-c2c(C)nn(CC3CCCNC3)c2C(F)(F)F)cc(N2CCOC[C@H]2C)n1", "note": "(some centres unmarked) [Compound D40]", "values": [{"measurement": "IC50", "setting": "ATR kinase", "result": 5, "unit": "nM"}, {"measurement": "IC50", "setting": "[1]; Homo sapiens", "result": 720, "unit": "nM"}, {"measurement": "IC50", "setting": "MV4-11 (leukemia) cells; Homo sapiens, MV4-11, 120 h", "result": 580, "unit": "nM"}]}
{"smiles": "CNc1nc2cc(F)ccc2n1-c1nc(-c2c(C)nn(CS(C)(=O)=O)c2C(F)(F)F)cc(N2CCOC[C@H]2C)n1", "note": "[Compound D41]", "values": [{"measurement": "IC50", "setting": "ATR kinase", "result": 29, "unit": "nM"}, {"measurement": "IC50", "setting": "[1]; Homo sapiens", "result": 940, "unit": "nM"}, {"measurement": "IC50", "setting": "MV4-11 (leukemia) cells; Homo sapiens, MV4-11, 120 h", "result": 570, "unit": "nM"}]}
{"smiles": "CNc1nc2cc(F)ccc2n1-c1nc(-c2c(C(F)(F)F)nn(CS(C)(=O)=O)c2C)cc(N2CCOC[C@H]2C)n1", "note": "[Compound D42]", "values": [{"measurement": "IC50", "setting": "ATR kinase", "result": 97, "unit": "nM"}, {"measurement": "IC50", "setting": "[1]; Homo sapiens", "result": 2010, "unit": "nM"}, {"measurement": "IC50", "setting": "MV4-11 (leukemia) cells; Homo sapiens, MV4-11, 120 h", "result": 1730, "unit": "nM"}]}
{"smiles": "CNc1nc2ccccc2n1-c1nc(-c2c(C)nn(CS(C)(=O)=O)c2C(F)(F)F)cc(N2CCOC[C@H]2C)n1", "note": "[Compound D43]", "values": [{"measurement": "IC50", "setting": "ATR kinase", "result": 19, "unit": "nM"}, {"measurement": "IC50", "setting": "[1]; Homo sapiens", "result": 210, "unit": "nM"}, {"measurement": "IC50", "setting": "MV4-11 (leukemia) cells; Homo sapiens, MV4-11, 120 h", "result": 540, "unit": "nM"}]}
{"smiles": "CNc1nc2ccccc2n1-c1nc(-c2c(C(F)(F)F)nn(CS(C)(=O)=O)c2C)cc(N2CCOC[C@H]2C)n1", "note": "[Compound D44]", "values": [{"measurement": "IC50", "setting": "ATR kinase", "result": 34, "unit": "nM"}, {"measurement": "IC50", "setting": "[1]; Homo sapiens", "result": 790, "unit": "nM"}, {"measurement": "IC50", "setting": "MV4-11 (leukemia) cells; Homo sapiens, MV4-11, 120 h", "result": 680, "unit": "nM"}]}
{"smiles": "CNc1nc2ccccc2n1-c1nc(-c2c(C(F)(F)F)nn(C3CCCNC3)c2C)cc(N2CCOC[C@H]2C)n1", "note": "(some centres unmarked) [Compound D45]", "values": [{"measurement": "IC50", "setting": "ATR kinase", "result": 10, "unit": "nM"}, {"measurement": "IC50", "setting": "[1]", "result": 920, "unit": "nM"}, {"measurement": "IC50", "setting": "MV4-11 (leukemia) cells; 120 hours", "result": 640, "unit": "nM"}]}
{"smiles": "Cc1nn(C2CCNCC2)c(C(F)(F)F)c1-c1cc(N2CCOC[C@H]2C)nc(-n2cnc3ccccc32)n1", "note": "[Compound D46]", "values": [{"measurement": "IC50", "setting": "ATR kinase", "result": 6, "unit": "nM"}, {"measurement": "IC50", "setting": "[1]", "result": 1330, "unit": "nM"}, {"measurement": "IC50", "setting": "MV4-11 (leukemia) cells; 120 hours", "result": 530, "unit": "nM"}]}
{"smiles": "Cc1c(-c2cc(N3CCOC[C@H]3C)nc(-c3cc(F)cc4[nH]ccc34)n2)c(C(F)(F)F)nn1C1CCNCC1", "note": "[Compound D47]", "values": [{"measurement": "IC50", "setting": "ATR kinase", "result": 5, "unit": "nM"}, {"measurement": "IC50", "setting": "[1]", "result": 600, "unit": "nM"}, {"measurement": "IC50", "setting": "MV4-11 (leukemia) cells; 120 hours", "result": 550, "unit": "nM"}]}
